Source: article PMC6940745 (International Journal of Molecular Sciences, 2019)
Where a SMILES comes first, the peptide text is derived from it. [ ]: non-standard residue; d: D form. The star is where a group is joined. Bz = O=C(c1ccccc1)*; NPr2 = CCCN(CCC)*

What was measured:
[1] = target: T1, MC3R (Homo sapiens, UniProt P41968); assay: MC3R activation, cAMP HTRF assay in CHO-K1 cells; assay type: cell-based; settings: eight concentrations, 0.01 to 100,000 nM
T1 construct: host or cells: CHO-K1
T1 sequence (P41968 whole entry): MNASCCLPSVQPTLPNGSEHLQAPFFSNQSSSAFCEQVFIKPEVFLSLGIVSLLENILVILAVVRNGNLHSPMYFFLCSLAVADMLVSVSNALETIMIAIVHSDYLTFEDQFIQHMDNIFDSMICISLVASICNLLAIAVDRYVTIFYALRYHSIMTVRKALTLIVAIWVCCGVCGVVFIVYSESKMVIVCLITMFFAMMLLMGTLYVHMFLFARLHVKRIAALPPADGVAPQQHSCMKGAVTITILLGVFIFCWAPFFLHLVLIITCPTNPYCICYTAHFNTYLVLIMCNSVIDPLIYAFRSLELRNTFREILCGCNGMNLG
Description: MCR-activation assays were performed by means of a cAMP HTRF (homogeneous time resolved fluorescence) assay for Gs-coupled receptors (cAMP Gs dynamic kit, Cisbio bioassays, 62AM4PEC). CHO-K1 cells expressing human recombinant MC1 receptor (EuroscreenFast, Gosselies, Belgium) (or MC2R, MC3R, MC4R, MC5R) were grown prior to the test in media without antibiotic. They were detached by gentle flushing with PBS-EDTA (5 mM EDTA), recovered by centrifugation, and resuspended in assay buffer (5 mM KCl, 1.25 mM MgSO4, 124 mM NaCl, 25 mM HEPES, 13.3 mM Glucose, 1.25 mM KH2PO4, 1.45 mM CaCl2, 0.5 g/L BSA, supplemented with 1 mM IBMX). Dose response curves were performed in parallel with the reference compounds. For agonist test (96-well), 12 µL of cells were mixed with 12 µL of the test compound diluted at increasing concentrations in assay buffer, and then incubated for 30 min at room temperature. After addition of the lysis buffer and 1 h incubation, fluorescence signal was measured, according to the manufacturer’s specifications, with the homogeneous time resolved fluorescence (HTRF) kit.

[2] = target: T2, MT1R (Homo sapiens, UniProt P48039); assay: MT1R activation, GTPγS scintillation proximity assay on CHO-K1 membranes; assay type: biochemical; settings: eight concentrations, 0.01 to 100,000 nM
T2 construct: host or cells: CHO-K1 (membrane preparations)
T2 sequence (P48039 whole entry): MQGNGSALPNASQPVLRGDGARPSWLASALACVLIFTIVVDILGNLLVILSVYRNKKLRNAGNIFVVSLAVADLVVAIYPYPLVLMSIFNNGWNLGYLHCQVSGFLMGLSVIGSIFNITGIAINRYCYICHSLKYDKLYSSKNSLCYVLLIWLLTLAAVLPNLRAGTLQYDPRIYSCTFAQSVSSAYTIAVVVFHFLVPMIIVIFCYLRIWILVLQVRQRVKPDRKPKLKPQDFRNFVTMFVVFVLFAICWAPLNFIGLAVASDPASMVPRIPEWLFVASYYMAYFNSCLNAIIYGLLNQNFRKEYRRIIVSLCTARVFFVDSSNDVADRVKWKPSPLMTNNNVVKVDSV
Description: (§1) Melatonin (MT1R and MT2R) and opioid receptor (OP1R, OP2R, and OP3R, corresponding to human delta, kappa, and mu opioid receptors) activation assays were performed by means of GTPγS scintillation proximity assays. For agonist testing, membrane preparations from CHO-K1 cells expressing each receptor (EuroscreenFast, Gosselies, Belgium) were mixed with guanosine diphosphate (GDP) (v/v). In parallel, GTPγ[^35S] (PerkinElmer, NEG030X, 0.1 nM final assay concentration) was mixed with PVT-WGA beads (Perkin Elmer, RPNQ001, 0.5 mg/well final assay density) (v/v) just before starting the reaction. The following reagents were then successively added in the wells of an Optiplate (Perkin Elmer): A total of 50 µL of test or reference ligand diluted in assay buffer, 10 µL of assay buffer (20 mM HEPES pH 7.4; 100–200 mM NaCl, 10 µg/mL saponin, MgCl2 at optimized concentration for the specific receptor, 0%–0.1% BSA), 20 µL of the membranes: GDP mix, and 20 µL of the GTPγ[^35S]: Beads mix. The plates were covered with a top seal, mixed on an orbital shaker for 2 min, and then incubated for 1 h at room temperature. Then the plates were centrifuged for 10 min at 2000 rpm, incubated at room temperature for 1 h, and counted for 1 min/well with a PerkinElmer TopCount™ reader.

[3] = target: T3, MT2R (Homo sapiens, UniProt P49286); assay: MT2R activation, GTPγS scintillation proximity assay on CHO-K1 membranes; assay type: biochemical; settings: eight concentrations, 0.01 to 100,000 nM
T3 construct: host or cells: CHO-K1 (membrane preparations)
T3 sequence (P49286 whole entry): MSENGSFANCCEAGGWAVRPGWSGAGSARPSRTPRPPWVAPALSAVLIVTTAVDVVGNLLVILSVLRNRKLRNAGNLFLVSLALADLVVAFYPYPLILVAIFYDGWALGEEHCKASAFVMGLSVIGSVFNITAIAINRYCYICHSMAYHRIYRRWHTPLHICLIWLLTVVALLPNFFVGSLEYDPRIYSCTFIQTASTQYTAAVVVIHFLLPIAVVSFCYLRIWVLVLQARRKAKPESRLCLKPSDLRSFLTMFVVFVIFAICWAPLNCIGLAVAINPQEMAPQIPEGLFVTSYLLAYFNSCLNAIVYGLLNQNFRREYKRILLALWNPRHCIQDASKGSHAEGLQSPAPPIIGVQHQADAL
Description: as §1

[4] = target: T4, OP2R (Homo sapiens, UniProt P41145); assay: OP2R (kappa opioid) activation, GTPγS scintillation proximity assay; assay type: biochemical; settings: eight concentrations, 0.01 to 100,000 nM
T4 construct: host or cells: CHO-K1 (membrane preparations)
T4 sequence (P41145 whole entry): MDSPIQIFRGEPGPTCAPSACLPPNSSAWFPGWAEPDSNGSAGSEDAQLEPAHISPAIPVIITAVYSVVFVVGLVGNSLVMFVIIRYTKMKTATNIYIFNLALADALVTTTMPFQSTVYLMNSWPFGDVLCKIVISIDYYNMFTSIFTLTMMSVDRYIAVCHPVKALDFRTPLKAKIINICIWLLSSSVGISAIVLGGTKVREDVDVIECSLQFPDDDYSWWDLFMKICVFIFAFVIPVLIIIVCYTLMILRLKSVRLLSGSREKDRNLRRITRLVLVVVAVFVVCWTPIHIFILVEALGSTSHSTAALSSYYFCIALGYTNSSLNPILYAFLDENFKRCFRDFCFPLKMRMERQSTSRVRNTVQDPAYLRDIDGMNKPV
Description: as §1

[5] = system: B16 murine melanoma cells; assay: Total melanin synthesis in mouse melanoma cells; assay type: cell-based; settings: 72 h incubation
Description: B16 murine melanoma cells, which are highly responsive towards stimulation with alpha-melanocyte stimulating hormone (alpha-MSH), were grown in Dulbecco’s modified eagle medium (DMEM) with 1 g/L glucose supplemented with 3 g/L glucose, 2 mM L-glutamine, 50 U/mL Penicillin, 50 µg/mL Streptomycin, and 10% fetal calf serum. They were kept at 37 °C in a 5% CO2 atmosphere. Cells were grown for 24 h and then medium was replaced with medium containing the test or reference (NDP-alpha-MSH) compounds. After 72 h, total (intracellular and extracellular) melanin content was determined by absorbance spectroscopy at 405 nm. The results were quantified against a melanin standard curve.
Figure 1 Total melanin synthesis in mouse melanoma cells stimulated with MC1R-agonist peptides. MC1R-agonist peptides were incubated at various concentrations together with the near confluent mouse melanoma cell line B16F10. NDP-alpha-MSH at 100 nM was used as the reference and set to 100% melanin (red line). Error bars represent standard error of the mean of three experiments.

[6] = system: MITF; assay: MITF protein expression in human skin ex vivo (immunohistochemistry); assay type: cell-based; settings: topical 30, 100 and 200 µM, six days; p < 0.05
Description: Following declaration of Helsinki principles (DoH-Oct2013, World Medical Association, Ferney-Voltaire, France), human skin samples were obtained from elective plastic surgery after informed consent was obtained. For the two experiments shown in Figure 2, Figure 3 and Figure 4, we had one person with an individual topology angle (ITA°) of 18, and one person with an ITA° of 39 [69]. The skin samples were cut in pieces of 8 × 3 mm and cultured up to day 6. Skin samples were cultured in an air–liquid interface in a perforated ring of stainless steel in contact with culture medium (modified Williams’ E medium). The culture medium was renewed every three days (i.e., day 0–3). Compounds were added daily in DMSO at 4 µL volume. At day 6, the skin samples were fixed in formalin, embedded in paraplast, and cut at the microtome for histochemical staining and consequent image analysis. Six skin biopsies were used for each single treatment.
Twelve skin sections from the ex vivo melanogenesis experiment above were immunoassayed with the selected antibodies (TYR, Thermo Scientific #MS-800-P0 (Thermo Scientific, Waltham, MA, USA); TYRP-1, Covance #SIG-38150 (Covance Inc., Princeton, NJ, USA), MITF, Abcam #ab80651 (Abcam plc, Cambridge, UK). The number of positive cells within the epidermis was counted and the value was normalized upon the length of the basal lamina, thus obtaining a score. […]

[7] = system: MC1R; assay: MC1R expression in ex vivo epidermis in the presence of UVA; assay type: cell-based, human; settings: ex vivo epidermis in the presence of UVA (Figure S1)

CCCN(CCC)C(=O)[C@@H](Cc1c[nH]c2ccccc12)NC(=O)[C@H](CCCNC(=N)N)NC(=O)[C@@H](Cc1ccccc1)NC(=O)[C@H](Cc1c[nH]cn1)NC(=O)CNC(=O)c1ccccc1 [Peptide 4] (Bz-GH[dF]R[dW]-NPr2)
EC50 [1]: 0.877 µM
EC50 [2]: > 100 µM
EC50 [3]: > 100 µM
EC50 [4]: > 100 µM
Concentration at which maximal melanin synthesis activity comparable to 100 nM NDP-alpha-MSH is reached [5]: around 12.3 nM
Maximal induction of MITF protein expression vs vehicle [6]: 79%
Influence on expression of MC1R [7]: no influence
